Source: publication PMC6385020 (Molecules, 2019)

Assays:
c-myc G4 [1] = test: TO-PRO-3 G4-FID assay; assay type: binding; settings: TO-PRO-3 2 eq, K+100 buffer
Procedure: (§1) For the G4-FID assay, the oligonucleotides were dissolved in K^+100 buffer (10 mM lithium cacodylate buffer pH 7.3, 100 mM KCl, 1% DMSO). Oligonucleotide concentrations were determined on the basis of their absorbance at 260 nm. For the fluorimetric titration, the oligonucleotides were dissolved in K^+100 buffer without DMSO. For the FRET-melting assay, the oligonucleotides were dissolved in K^+1 buffer (10 mM lithium cacodylate buffer pH 7.3, 1 mM KCl, 99 mM LiCl) except for F-21-T. F-21-T was dissolved in K^+10 buffer (10 mM lithium cacodylate buffer pH 7.3, 10 mM KCl, 90 mM LiCl).
(§2) Prior to use, all oligonucleotides were pretreated by heating at 95 °C for 5 min, then rapidly cooled to 4 °C to favor the intramolecular folding by kinetic trapping. Duplex-DNA ds26 was prepared by heating the self-complementary strand at 90 °C for 5 min in K^+1 buffer followed by a slow cooling over 6 h.
(§3) Each G4-FID assay was performed in a 96-well Non-Binding Surface black with black bottom polystyrene microplates (Corning). Every ligand was tested on a line of the microplate, in duplicate. The microplate was filled with (a) K^+100 solution (qs for 200 μL), (b) 10 μL of a solution of pre-folded oligonucleotides (5 μM) and fluorescent probe (TO/TO-PRO-3 (10 μM—2 eq) or PhenDV (7,5 µM—1.5 eq)), and (c) an extemporaneously prepared 5 μM ligand solution in K^+100 buffer (0 to 100 μL) along the line of the microplate, i.e., from column A to column H: 0, 0.125, 0.25, 0.375, 0.5, 0.625, 0.75, 1.0, 1.25, 1.5, 2.0, and 2.5 μM. After 5 min of orbital shaking at 500 rpm, fluorescence is measured using the following experimental parameters: positioning delay of 0.5 s, 20 flashes per well, emission/excitation filters for TO at 485/520, TO-PRO-3 at 620/670, and PhenDV at 355/520 gain adjusted at 80% of the fluorescence from the most fluorescent well (i.e., a well from column A for TO and a well from column H).
(§4) The percentage of TO displacement is calculated from the fluorescence intensity (F), using (1) % TO displacement=1−F/F0 where F0 is the fluorescence from the fluorescent probe bound to DNA without added ligand.
(§5) The PhenDV displacement is calculated from the fluorescence intensity F; F(ligand+probe), which refers to the fluorescence of the probe in presence of the ligand (without G4); and F0, which is the fluorescence without added ligand. The term F(ligand+probe) is necessary as the ligand can quench the fluorescence of the probe. The percentage of displacement is then plotted as a function of the concentration of the added ligand. The DNA affinity was evaluated by the concentration of ligand required to decrease the fluorescence of the probe by 50%, was noted DC50, and was determined after non-linear fitting of the displacement curve.

[2] = test system: CEB25-WT minisatellite sequence G4; test: TO-PRO-3 G4-FID assay; assay type: binding; settings: TO-PRO-3 2 eq, K+100 buffer
Procedure: as §1, §2, §3, §4, §5

[3] = test system: 22AG human telomeric sequence G4; test: TO-PRO-3 G4-FID assay; assay type: binding; settings: TO-PRO-3 2 eq, K+100 buffer
Procedure: as §1, §2, §3, §4, §5

[4] = test system: CEB25-WT (DNA, G4) AAGGGTGGGTGTAAGTGTGGGTGGGT; test: G4-FID, thiazole orange displacement; settings: 100 mM KCl; 10 mM lithium cacodylate pH 7.3, 1% DMSO; thiazole orange displaced; 1 µM compound, 0.25 µM DNA
c-myc G4 [5] = test: TO G4-FID assay; assay type: binding; settings: TO 2 eq, K+100 buffer
Procedure: as §1, §2, §3, §4, §5

[6] = test system: CEB25-WT minisatellite sequence G4; test: TO G4-FID assay; assay type: binding; settings: TO 2 eq, K+100 buffer
Procedure: as §1, §2, §3, §4, §5

[7] = test system: 22AG human telomeric sequence G4; test: TO G4-FID assay; assay type: binding; settings: TO 2 eq, K+100 buffer
Procedure: as §1, §2, §3, §4, §5

[8] = test system: 21CTA human telomeric sequence variant G4; assay type: binding; settings: K+100 buffer; for % of TO displacement at 1 µM of ligand: TO 2 eq; for % of TOPRO3 displacement at 1 µM of ligand: TO-PRO-3 2 eq
Procedure: as §1, §2, §3, §4, §5

[9] = test system: 22AG (DNA, G4) AGGGTTAGGGTTAGGGTTAGGG; test: G4-FID, thiazole orange displacement; settings: 100 mM KCl; 10 mM lithium cacodylate pH 7.3, 1% DMSO; thiazole orange displaced; 1 µM compound, 0.25 µM DNA
c-myc G4 DNA = test: Platination of c-myc followed by denaturing gel electrophoresis; assay type: biochemical; settings: for platination of c-myc during melting temperature experiments: 0.2 µM c-myc, 1 µM complex, 25 to 95 °C gradient, K+1 buffer; for selectivity of platination, c-myc G4 vs duplex ds26 (competition kinetics): c-myc 0.2 µM, ds26 10 µM; for platination products on gel electrophoresis: c-myc 100 µM, 18 h at 32 °C, K+100 buffer
Procedure: The five platinum complexes were incubated for 18 h at 32 °C with pre-folded 5’-end ^32P radiolabeled c-myc DNA (10 or 100 µM) and loaded on denaturing polyacrylamide gel electrophoresis (Figure 4).
Two main accelerated bands (A1 and A2) were detected for Pt-ttpy and three were detected for Pt-tpy (B1, B2, and B3) in the presence of 10 µM of DNA. However, for Pt-BisQ, two accelerated bands (C1 and C2) and one retarded band (C3) were only detected at higher DNA concentration (100 µM). It is noteworthy that c-myc platination products migrate faster that the non-platinated G4, resulting in a stark contrast if compared to 22AG in which platination products migrate slower (Figure 2): this is due to the presence of the still folded G4 structures that resist to denaturation, as already found. […] The platination sites of Pt-ttpy, Pt-tpy, and Pt-BisQ were determined by 3’-exonuclease digestion, which stops at the platinated base, followed by a de-platination treatment of the digested fragments with NaCN (Figures S6 and S7). The exact length of the digested de-platinated fragment was deduced from its migration compared with the one of a digestion ladder of the c-myc sequence on a denaturating gel electrophoresis.
The oligonucleotides were 5’-end-labelled using a polynucleotide kinase and (γ^32P)-ATP (Perkin Helmer). The reaction products were purified by electrophoresis on 20% denaturing gel. Sample platinations were prepared by folding a mixture of 5’-end-radiolabeled DNA and 10 µM or 100 µM of non-radiolabeled material in 100 mM KClO4 or 100 mM KCl solution except for the platination reaction in the denaturing temperature conditions. The folding was achieved by heating the samples at 90 °C for 5 min, followed by slow cooling to room temperature over the course of 2 h to induce the formation of the quadruplex structure. It was then incubated with platinum complexes, and platinated products were separated by electrophoresis on 15% denaturing gel. They were then eluted from gel, precipitated, treated by 3’-exonuclease at 37 °C for 30 min, and loaded on a 20% denaturing gel. The digested fragments were eluted from this gel precipitated, treated over night by NaCN 0.2M, precipitated, and loaded once again on a 20% denaturing gel. Gels were scanned using a STORM860 (Molecular Dynamics).

[10] = test system: G4 structures (22AG, c-myc, 21CTA, CEB25-WT); test: TO-PRO-3-G4-FID assay, G4 structures; assay type: binding
Procedure: as §1, §2, §3, §4, §5

SMILES | % of TOPRO3 displacement at 1 µM of ligand (c-myc G4 [1]) [%] | % of TOPRO3 displacement at 1 µM of ligand [2] [%] | % of TOPRO3 displacement at 1 µM of ligand [3] [%] | % TO displacement [4] [%] | % of TO displacement at 1 µM of ligand (c-myc G4 [5]) [%] | % of TO displacement at 1 µM of ligand [6] [%] | % of TO displacement at 1 µM of ligand [7] [%] | % of TO displacement at 1 µM of ligand [8] [%] | % of TOPRO3 displacement at 1 µM of ligand [8] [%] | % TO displacement [9] [%] | platination of c-myc during melting temperature experiments (c-myc G4 DNA) | selectivity of platination, c-myc G4 vs duplex ds26 (competition kinetics) (c-myc G4 DNA; K+10 buffer) | incubation time to metallate a large amount of c-myc* (c-myc G4 DNA; c-myc* 0.2 µM, K+10 buffer, 25 °C) [min] | TO-PRO-3 displacement [10] | platination products on gel electrophoresis (c-myc G4 DNA)
Cc1ccc(-c2cc(-c3ccccn3)nc(-c3ccccn3)c2)cc1.[Cl-].[Cl][Pt+] [Pt-ttpy] | 76 | 62 | 65 | > 80 | 64 | 66 | 80 | 87 | 62 | > 80 | clearly platinate | high selectivity | ≤ 120 | – | –
[Cl-].[Cl][Pt+].c1ccc(-c2cc(-c3ccc(OCCN4CCCC4)cc3)nc(-c3ccccn3)n2)nc1 [Pt-cpym, Chloro-(2,4-di(pyridin-2-yl)-6-(4-(2-(pyrrolidin-1-yl)ethoxy)phenyl)pyrimidine)-platinum(II) Chloride] | – | – | 25 | < 60 | 33 | 43 | 67 | 82 | 25 | < 60 | – | – | – | weak displacement | Non-defined platination products
CN(C)CCCNCc1ccc(-c2cc(-c3ccccn3)nc(-c3ccccn3)c2)cc1.[Cl-].[Cl][Pt+] [Pt-ctpy] | 58 | 76 | 78 | > 80 | 76 | 82 | 88 | 93 | 83 | > 80 | – | – | – | – | Non-defined platination products
[Cl-].[Cl][Pt+].c1ccc(-c2cccc(-c3ccccn3)n2)nc1 [Pt-tpy] | 32 | – | 12 | – | 41 | 14 | 21 | 24 | 23 | – | clearly platinate | low binding selectivity | – | weak displacement | –
CN(C)c1ccc(/C=C/c2cc(-c3ccccn3)nc(-c3ccccn3)n2)cc1.[Cl-].[Cl][Pt+] [Pt-vpym, Chloro-(E)-4-(2-(2,6-di(pyridin-2-yl)pyrimidin-4-yl)vinyl)-N,N-dimethylaniline-platinum(II) Chloride] | 32 | 23 | 28 | – | – | – | – | – | 32 | – | – | – | – | 30% | Non-defined platination products
